“Also recorded” adds a separate entry of the source.
Tests used:
THP-1 cells = assay: LPS-induced cytokine and chemokine release in THP-1 cells; assay type: cell-based
Aβ1-40 and Aβ1-42 = Aβ1-40 and Aβ1-42 ELISA in brain homogenate fractions and CSF of hAPP Tg mice; assay type: in vivo
Experimental: (§1) iv) Treatment • Forty female hAPP transgenic mice were treated with either 0.1 mg/kg b.w./every two weeks or 10 mg/kg b.w./every three weeks of the test substance XG-102 (SEQ ID NO: 11) in two different dosages (n=12/group) or treated with the vehicle (n=12) s.c. once every three weeks over four months.
vi) Tissue Sampling • At the end of the treatment period, and following all behavioral testing, all remaining mice (n=28) were sacrificed. Therefore, all mice were sedated by standard inhalation anesthesia (Isofluran, Baxter) as described in SOP MET030. Cerebrospinal fluid (CSF) was obtained by blunt dissection and exposure of the foramen magnum. Upon exposure, a Pasteur pipette was inserted to the approximate depth of 0.3-1 mm into the foramen magnum. CSF was collected by suctioning and capillary action until flow fully ceases. Two aliquots of each sample were immediately frozen and kept at −80° C. until ready for further analysis with ELISA technique. After CSF sampling, each mouse was placed in dorsal recumbence, thorax was opened and a 26-gauge needle attached to a 1 cc syringe was inserted into the right cardiac ventricular chamber. Light suction was applied to the needle and blood was collected into EDTA and consequently used to obtain plasma. To get plasma, blood samples from each mouse were spun at 1,750 rpm (700 g) for 10 minutes in a centrifuge (GS-6R Beckman) using a rotor with swing buckets (GH—3.8 Beckman). Plasma was frozen and stored at −20° C. until further analysis. After blood sampling transgenic mice were intracardially perfused with 0.9% sodium chloride. Brains were rapidly removed the cerebellum was cut off. The right hemispheres of all mice were immersion fixed in freshly produced 4% Paraformaldehyde/PBS (pH 7.4) for one hour at room temperature. Thereafter brains were transferred to a 15% sucrose PBS solution for 24 hours to ensure cryoprotection. […]
vii) Determination of Aβ1-40 and Aβ1-42 • In four different brain homogenate fractions of each Tg mouse as well as in CSF samples the Aβ1-40 and Aβ1-42 levels were evaluated with ELISA technique. […]

hAPP Tg mice = assay: Plaque load by 6E10 immunohistochemistry and ThioflavinS staining in hAPP Tg mice; assay type: in vivo
Experimental: as §1
viii) Evaluation of Brain Morphology • Brain tissues of all Tg animals investigated were handled in exactly the same way to avoid bias due to variation of this procedure. From brain halves of 24 Tg mice (8 of each group) 20 cryo-sections per layer (altogether 5 layers), each 10 μm thick (Leica CM 3050S) were sagittally cut and 5 (one from each layer) were processed and evaluated for quantification of plaque load. The five sagittal layers corresponded with the FIGS. 104 to 105, 107 to 108, 111 to 112, 115 to 116 and 118 to 119 according to the morphology atlas “The Mouse Brain” from Paxinos and Franklin (2nd edition). The first layer was specified by the requirement to include the whole hippocampus with it's regions CA1, CA2, CA3, GDIb and GDmb. Immunoreactivity was quantitatively evaluated in the hippocampus and in the cortex using the monoclonal human Aβ-specific antibody 6E10 (Signet) as well as ThioflavinS staining. Remaining brain hemispheres or tissue not used were saved and stored at JSW CNS until the end of the project. b) Evaluation
iii) Histology • i1) Measurement of Amyloid Depositions and Plaque Load • For 6E10 immunohistochemistry the following evaluation procedure was used: • aa) Contrasting the image for visualization of slice borders without applying the contrast on the image. • bb) Interactive drawing of the cortical outlines and the following measurement of the cortical area (=region area). • cc) Interactive drawing of the area of interest (AOI), in which stained objects are detected over a certain intensity based threshold level (the same for each image) and above a size of 8 μm^2. • dd) Measurement of the area of each object, the sum of stained area in the AOI as well as the number of objects after a smooth contrasting to enhance signal/noise ratio (the same for each image). • ee) Repetition of aa)-dd) for the hippocampus. • ff) Calculation of the mean plaque size (=“sum area of plaques/number of plaques”), the relative plaque number and area (=“number of plaques/region area” and “sum area of plaques/region area*100”). • gg) Automated data export into an Excel spread sheet, including the parameters “image title, region area, number of plaques, sum of plaque area, relative plaque number, relative plaque area and mean plaque size. A field for remarks was used to record image quality and exclusion criteria, respectively. Exclusion criteria were missing parts of the slice, many wrinkles, dominant flaws or staining inconsistencies (e.g. due to bulges, which can impede the full reaction of the blocking reagent). • hh) Closing the image without saving (to keep raw data raw). c) Results

Description for db/db mice: i) Animals • A total of twenty (20) male db/db mice (8 weeks old) were obtained from Charles River (Germany). Upon arrival, animals were group housed (n=6-7/group) and offered regular rodent chow (Altromin standard #1324 chow; C. Petersen, Ringsted, Denmark) and water ad libitum unless otherwise stated. • The mice were housed under a 12:12 L/D cycle (lights on at 4:00 and lights off at 16:00) and in temperature and humidity controlled rooms.
ii) Groups and Randomization • On day 4, mice were randomized according to blood glucose level (fasted; blood glucose measured on Biosen S line analyzer (EKF diagnostic, Germany) to participate in one of the following drug treatment groups (n=6): • 1) Vehicle control, S.C. […] Drug purity: 95.28%, peptide content: 78.0%. All compounds were administered sub-cutaneously (s.c.) in a volume of 3 ml/kg. […] The formulations (concentrations of 0.33 and 3.3 mg/ml, corresponding to the doses of 1 and 10 mg/kg, respectively) were prepared according to the procedure detailed below. […] Aliquots are prepared for each treatment day and stored at approximately −80° C. Dilutions of this stock solution to the required concentrations are performed on each treatment day; • Storage of the stock solution: at approximately −80° C.; • Storage of the diluted preparations: at room temperature for 24 hours maximum. • Prior to solubilisation, the powder was stored at −20° C. The stability of the stock solution is 3 months at approximately −80° C.; the stability of the diluted formulations for animal dosing is 24 hours at room temperature. Unused diluted material could be stored for up to 7 days if kept at 4-8° C. c) Experimental Procedure
Following 8 days of acclimatization the mice were treated daily at 08.00 AM for 21 days by SC dosing 8 hours prior to lights out at 04.00 PM according to the outline groups.
i) Blood Glucose • Blood glucose was measured from 7 hour fasted animals 6 hours post dosing by collection of 10 μl blood samples from the tail-vein in hematocrite tubes and subsequent analysis on a Biosen s-line analyzer (EKF-diagnostic; Germany).
ii) Metabolic Cages • Groups 1+3: Mice were placed in metabolic cages for the recording of 24-hour food and water intake as well as 24-hour urine and feces production. Mice were stratified into two sub-teams of n=6-7 and subsequently the metabolic characterisation were performed on study days 71-72.
iii) Adipokine Panel • Groups 1+3: On three occasions (study days 57, 66 and 108) blood was collected from the tail vein using EDTA coated hematocrite tubes (100 μl). Following centrifugation of blood the plasma was collected and stored at −20° C. until measurement. Then, the following panel of adipokines/cytokines was determined using Luminex based 7-plex: leptin, resistin, MCP-1, PAI-1, TNF, insulin and interleukin-6 (IL-6).
iv) Termination • Groups 1+3 (day 111): The following organs were excised and weighed: inguinal subcutaneous fat, epididymal fat, retroperitoneal fat, brain, liver, kidney, spleen and heart. All organs described above were samples in 4% PFA for possible future histo-pathological examination. Also, pancreas (en bloc) was sampled for possible stereological and immunohistochemical analysis, and eyes were sampled for possible later analysis of retinopathy. Group 2 (day 28): No tissues or plasma were collected. c) Results

## CC(C)C[C@@H](NC(=O)[C@@H](Cc1ccccc1)NC(=O)[C@H]1CCCN1C(=O)[C@@H](CCC(N)=O)NC(=O)[C@H](NC(=O)[C@H]1CCCN1C(=O)[C@@H](CCCNC(=N)N)NC(=O)[C@@H](CO)NC(=O)[C@@H](CCC(N)=O)NC(=O)[C@H](N)CC(=O)O)C(C)C)C(=O)N[C@H](CC(N)=O)C(=O)N[C@H](CC(C)C)C(=O)N[C@@H](C(=O)N[C@@H](C(=O)N1CCC[C@@H]1C(=O)N[C@H](CCCNC(=N)N)C(=O)N[C@H](CCCCN)C(=O)N1CCC[C@@H]1C(=O)N[C@H](CCCNC(=N)N)C(=O)N1CCC[C@@H]1C(=O)N1CCC[C@@H]1C(=O)N[C@H](CCCNC(=N)N)C(=O)N[C@H](CCCNC(=N)N)C(=O)N[C@H](CCCNC(=N)N)C(=O)N[C@H](CCC(N)=O)C(=O)N[C@H](CCCNC(=N)N)C(=O)N[C@H](CCCNC(=N)N)C(=O)N[C@H](CCCCN)C(=O)N[C@H](CCCCN)C(=O)N[C@H](CCCNC(=N)N)C(=O)NCC(=O)O)[C@H](C)O)[C@H](C)O [XG-102]
db/db mice; 1 mg/kg s.c., 28 days of dosing
  fasting blood glucose: no effect
db/db mice; 1 mg/kg, 28 days of dosing
  body weight: no effect
db/db mice; 10 mg/kg s.c.
  fasting blood glucose, low plateau: approximately 5 mmol/L
db/db mice; 10 mg/kg s.c. daily for 21 days, then wash-out to day 111
  fasting blood glucose vs vehicle control: clear and significant (p<0.001) decrease in the level of fasting blood glucose
db/db mice; 10 mg/kg, day 57, 77 and 108
  plasma levels of insulin, MCP-1, IL-6, tPAI-1, TNF: no significant effects
db/db mice; 10 mg/kg, day 77 and 108
  plasma resistin: significantly higher
db/db mice; 10 mg/kg, from day 28 to day 111
  body weight vs vehicle control: clear and significant (p<0.001) prevention of body weight increase
db/db mice; 10 mg/kg, study day 68
  24 hour food and water intake, urine and feces production (metabolic cages): no significant effects
db/db mice; 10 mg/kg, termination day 111
  tissue weight of epididymal and retroperitoneal fat pads: significant decrease of epididymal (p<0.05) and retroperitoneal (p<0.01) fat mass
  tissue weight of kidney and liver: significant decrease of kidney (p<0.05) and liver (p<0.01) mass
db/db mice; mouse, in vivo
  alertness, activity, sedation: no signs of sedation
THP-1 cells
  LPS-induced TNFa, IL-6 and MCP-1 release: reducing LPS-induced TNFa, IL-6 and MCP-1 release in THP-1 cells
Aβ1-40 and Aβ1-42; both dosages
  brain homogenate Aβ1-40 levels: did not affect brain homogenate Aβ1-40 levels
Aβ1-40 and Aβ1-42; both dosages, p<0.01 10 mg/kg, <0.05 low dosage
  CSF Aβ1-40 and Aβ1-42 levels: a significant decrease of Aβ1-40 and Aβ1-42 in CSF; also recorded: significantly decreased in CSF compared to vehicle group
Aβ1-40 and Aβ1-42; low dose 0.1 mg/kg, p<0.05 vs vehicle
  Aβ1-42 level in Triton X-100 fraction: a significant reduction compared to the vehicle group
hAPP Tg mice; 0.1 mg/kg
  mean plaque size (ThioflavinS, hippocampus): reduced mean plaque size, however this effect did not reach significance level
hAPP Tg mice; 10 mg/kg
  cortical 6E10 IR plaque load: increased versus vehicle
hAPP Tg mice; mouse, in vivo
  ThioflavinS plaque area [%] in the hippocampus: significantly reduced the area obtained by plaques in the hippocampus
  cortical plaque load (ThioflavinS): cortical plaque load remained unchanged
hAPP Tg mice; p<0.05 for 10 mg/kg, p<0.01 for 0.1 mg/kg
  number of hippocampal ThioflavinS positive plaques: reduced the number of plaques negatively dose-dependent in the hippocampus; also recorded: a negatively dose dependent reduction of the number of hippocampal ThioflavinS positive plaques

Reference: patent US9006185B2, “Use of cell-permeable peptide inhibitors of the JNK signal transduction pathway for the treatment of various diseases” (Xigen Inflammation Ltd., priority 2008, dated 2015)
